Organism: Rattus norvegicus
Assay: DrugMatrix - Regimen: Daily Repeat
Format: toxicity, organism-based, Sprague-Dawley
Design: regimen Daily Repeat, gender Male, age 6-8 weeks
Conditions: in vivo, po, route oral GAVAGE, […]; for ABSOLUTE BASOPHIL / ABSOLUTE EOSINOPHIL / ABSOLUTE LYMPHOCYTE / ABSOLUTE MONOCYTE / ABSOLUTE SEGMENTED NEUTROPHIL / BASOPHIL / EOSINOPHIL / ERYTHROCYTE COUNT / HEMATOCRIT / HEMOGLOBIN / LEUKOCYTE COUNT / LYMPHOCYTE / MEAN CORPUSCULAR HEMOGLOBIN / MEAN CORPUSCULAR HEMOGLOBIN CONCENTRATION / MEAN CORPUSCULAR VOLUME / MONOCYTE / NEUTROPHIL / NUCLEATED RED BLOOD CELLS / PLATELET COUNT: tissue Blood; for ALANINE AMINOTRANSFERASE / ALBUMIN / ALKALINE PHOSPHATASE / ASPARTATE AMINOTRANSFERASE / BLOOD UREA NITROGEN / CARBON DIOXIDE / CHLORIDE / CHOLESTEROL / CREATINE PHOSPHOKINASE / CREATININE / GLUCOSE / LACTATE DEHYDROGENASE / LIPASE / PHOSPHORUS / POTASSIUM / SODIUM / TOTAL BILIRUBIN / TOTAL PROTEIN / URIC ACID: tissue Plasma
[1] = 0 mg/kg, 72 h, dose level Control, time 3 day
[2] = 0 mg/kg, dose level Control, time 7 day
[3] = 130 mg/kg, 72 h, dose level Low, time 3 day

## CCOC(=O)C(C)(C)Oc1ccc(Cl)cc1 [CLOFIBRATE]
[1]
  ABSOLUTE BASOPHIL: 0 CELLS/uL
  ABSOLUTE EOSINOPHIL: 37.33 CELLS/uL
  ABSOLUTE LYMPHOCYTE: 6295.33 CELLS/uL
  ABSOLUTE MONOCYTE: 122.17 CELLS/uL
  ABSOLUTE SEGMENTED NEUTROPHIL: 861.83 CELLS/uL
  BASOPHIL: 0%
  EOSINOPHIL: 0.5%
  ERYTHROCYTE COUNT: 5.2 x10E6/uL
  HEMATOCRIT: 32.58%
  HEMOGLOBIN: 12.95 G/DL
  LEUKOCYTE COUNT: 7.32 x10E3/uL
  LYMPHOCYTE: 86%
  MEAN CORPUSCULAR HEMOGLOBIN: 24.93 pg
  MEAN CORPUSCULAR HEMOGLOBIN CONCENTRATION: 39.77 G/DL
  MEAN CORPUSCULAR VOLUME: 62.65 fL
  MONOCYTE: 1.67%
  NEUTROPHIL: 11.83%
  NUCLEATED RED BLOOD CELLS: 0 /100WBC
  PLATELET COUNT: 1029 x10E3/uL
  ALANINE AMINOTRANSFERASE: 63.67 u/L
  ALBUMIN: 4.12 G/DL
  ALKALINE PHOSPHATASE: 329.83 u/L
  ASPARTATE AMINOTRANSFERASE: 77.67 u/L
  BLOOD UREA NITROGEN: 18 mg/dL
  CARBON DIOXIDE: 29.67 mmol/L
  CHLORIDE: 102.67 MEQ/L
  CHOLESTEROL: 64.5 mg/dL
  CREATINE PHOSPHOKINASE: 178.67 u/L
  CREATININE: 0.18 mg/dL
  GLUCOSE: 163.83 mg/dL
  LACTATE DEHYDROGENASE: 75.83 u/L
  LIPASE: 10 u/L
  PHOSPHORUS: 8.28 mg/dL
  POTASSIUM: 4.79 MEQ/L
  SODIUM: 142.22 MEQ/L
  TOTAL BILIRUBIN: 0.22 mg/dL
  TOTAL PROTEIN: 5.78 G/DL
  URIC ACID: 0.87 mg/dL
[2]
  ABSOLUTE BASOPHIL: 0 CELLS/uL
  ABSOLUTE EOSINOPHIL: 19 CELLS/uL
  ABSOLUTE LYMPHOCYTE: 7803.5 CELLS/uL
  ABSOLUTE MONOCYTE: 117.83 CELLS/uL
  ABSOLUTE SEGMENTED NEUTROPHIL: 1093 CELLS/uL
  BASOPHIL: 0%
  EOSINOPHIL: 0.17%
  ERYTHROCYTE COUNT: 5.84 x10E6/uL
  HEMATOCRIT: 35.75%
  HEMOGLOBIN: 13.87 G/DL
  LEUKOCYTE COUNT: 9.03 x10E3/uL
  LYMPHOCYTE: 87.17%
  MEAN CORPUSCULAR HEMOGLOBIN: 23.78 pg
  MEAN CORPUSCULAR HEMOGLOBIN CONCENTRATION: 38.8 G/DL
  MEAN CORPUSCULAR VOLUME: 61.25 fL
  MONOCYTE: 1.17%
  NEUTROPHIL: 11.5%
  NUCLEATED RED BLOOD CELLS: 0 /100WBC
  PLATELET COUNT: 1098.67 x10E3/uL
  ALANINE AMINOTRANSFERASE: 66 u/L
  ALBUMIN: 4.3 G/DL
  ALKALINE PHOSPHATASE: 291.83 u/L
  ASPARTATE AMINOTRANSFERASE: 80.5 u/L
  BLOOD UREA NITROGEN: 15.67 mg/dL
  CARBON DIOXIDE: 30 mmol/L
  CHLORIDE: 101.67 MEQ/L
  CHOLESTEROL: 69.67 mg/dL
  CREATINE PHOSPHOKINASE: 363.33 u/L
  CREATININE: 0.25 mg/dL
  GLUCOSE: 146.5 mg/dL
  LACTATE DEHYDROGENASE: 219.67 u/L
  LIPASE: 11.33 u/L
  PHOSPHORUS: 10.08 mg/dL
  POTASSIUM: 5.22 MEQ/L
  SODIUM: 144.67 MEQ/L
  TOTAL BILIRUBIN: 0.12 mg/dL
  TOTAL PROTEIN: 6.33 G/DL
  URIC ACID: 0.75 mg/dL
[3]
  ABSOLUTE BASOPHIL: 0 CELLS/uL
  ABSOLUTE EOSINOPHIL: 0 CELLS/uL
  ABSOLUTE LYMPHOCYTE: 6441.67 CELLS/uL
  ABSOLUTE MONOCYTE: 98 CELLS/uL
  ABSOLUTE SEGMENTED NEUTROPHIL: 743.67 CELLS/uL
  BASOPHIL: 0%
  EOSINOPHIL: 0%
  ERYTHROCYTE COUNT: 5.19 x10E6/uL
  HEMATOCRIT: 32.77%
  HEMOGLOBIN: 13.27 G/DL
  LEUKOCYTE COUNT: 7.28 x10E3/uL
  LYMPHOCYTE: 88.83%
  MEAN CORPUSCULAR HEMOGLOBIN: 25.65 pg
  MEAN CORPUSCULAR HEMOGLOBIN CONCENTRATION: 40.57 G/DL
  MEAN CORPUSCULAR VOLUME: 63.17 fL
  MONOCYTE: 1.33%
  NEUTROPHIL: 9.83%
  NUCLEATED RED BLOOD CELLS: 0 /100WBC
  PLATELET COUNT: 1091.67 x10E3/uL
  ALANINE AMINOTRANSFERASE: 69.83 u/L
  ALBUMIN: 4.22 G/DL
  ALKALINE PHOSPHATASE: 373.67 u/L
  ASPARTATE AMINOTRANSFERASE: 86 u/L
  BLOOD UREA NITROGEN: 16.5 mg/dL
  CARBON DIOXIDE: 30.17 mmol/L
  CHLORIDE: 101.83 MEQ/L
  CHOLESTEROL: 48.17 mg/dL
  CREATINE PHOSPHOKINASE: 463.67 u/L
  CREATININE: 0.14 mg/dL
  GLUCOSE: 170.83 mg/dL
  LACTATE DEHYDROGENASE: 85.33 u/L
  LIPASE: 9.67 u/L
  PHOSPHORUS: 8.43 mg/dL
  POTASSIUM: 5.04 MEQ/L
  SODIUM: 142.75 MEQ/L
  TOTAL BILIRUBIN: 0.18 mg/dL
  TOTAL PROTEIN: 5.87 G/DL
  URIC ACID: 0.93 mg/dL
